These results are taken from article PMC7270141 (International Journal for Parasitology: Drugs and Drug …, 2020).

Data set [1] deals with P. falciparum multidrug-resistant W2 strain. The data set is described as follows: SYBR Green I fluorescence assay, asexual parasite proliferation, W2 strain. The data set is classed as cell-based. The following applies: for Resistance Index (RI) = IC50 for W2/IC50 for NF54: W2 vs NF54.
Another data set in a line: Lactate dehydrogenase. The following applies: human, Cytotoxicity EC50, HepG2, HepG2, LDH leakage, mean ± SEM, n ≥ 2.
In the next data set the test system is HepG2 cells. As to the kind of experiment: Lactate dehydrogenase. To be noted: for Selectivity Index (SI) = EC50 for HepG2/IC50 for NF54: HepG2 vs NF54.
A short description of data set [2]: Solubility, miniaturised shake-flask method. The following applies: PBS pH 6.5, 24 h at 25 °C, HPLC-DAD, unit from abstract. Type of data set: physicochemical.
A short description of data set [3]: Single-point metabolic stability, human liver microsomes. The data set is classed as in vitro ADME.
Data set [4] can be described thus: Single-point metabolic stability, mouse liver microsomes. The data set is classed as in vitro ADME.
Data set [5] is described as follows: Single-point metabolic stability, rat liver microsomes. Type of data set: in vitro ADME.
The next data set has as its system P. berghei. To be noted: murine P. berghei, after a single oral dose; ref François et al., 1997c; cited from earlier work.
Setting [6] is: Plasmodium falciparum, W2, 96 h, read-out: Inhibition of parasite proliferation IC50, W2, multidrug-resistant W2, 96 h drug pressure, mean ± SEM, n ≥ 2.

Structures are written as SMILES. Read-outs that look alike come from different tables or passages of the source.

As for `CCN(CC)CCCC(C)Nc1ccnc2cc(Cl)ccc12` (centres unmarked) [Chloroquine, reference compound], the IC50 in data set [1] (setting [6]) was found to be 0.382 ± 0.09 µM. Moreover, in data set [1], the “Resistance Index (RI) = IC50 for W2/IC50 for NF54” value (from here on “Resistance Index (RI) = IC50”) is reported as 29.5. The EC50 in “Lactate dehydrogenase” came out at 37 ± 4.5 µM. Further, in the data set on HepG2 cells, the “Selectivity Index (SI) = EC50 for HepG2/IC50 for NF54” value (shortened to “Selectivity Index (SI) = EC50”) came out at 2855.4.
For the compound `COc1cc(C)c(-c2ccc(O)c3c2C[C@@H](C)N[C@@H]3C)c2cccc(O)c12` (single isomer, unassigned) [Dioncophylline C (2a), dioncophylline C], in data set [1], the “Resistance Index (RI) = IC50” value was found to be 2.9. In addition, the IC50 in data set [1] (read-out: Inhibition of parasite proliferation IC50, W2, multidrug-resistant W2, 96 h drug pressure, mean ± SEM, n ≥ 2) worked out at 0.112 ± 0.01 µM. Further, in data set [2], the “Solubility PBS (pH 6.5)” value came out at 170 μM. Further, in data set [3] (1 μM, human liver microsomes 0.4 mg/ml, 30 min, 37 °C), the “% Remaining after 30 min, Human” value was determined as 94%. The “Microsomal clearance, Human” value in data set [3] (in vitro intrinsic clearance, human liver microsomes) is below 11.6 µL/min/mg. Also, the “% Remaining after 30 min, Mouse” value in data set [4] (1 μM, mouse liver microsomes 0.4 mg/ml, 30 min, 37 °C) worked out at 95%. Moreover, in data set [4] (in vitro intrinsic clearance, mouse liver microsomes), the “Microsomal clearance, Mouse” value is below 11.6 µL/min/mg. Moreover, the “% Remaining after 30 min, Rat” value in data set [5] (1 μM, rat liver microsomes 0.4 mg/ml, 30 min, 37 °C) was 95%. Moreover, the “Microsomal clearance, Rat” value in data set [5] (in vitro intrinsic clearance, rat liver microsomes) is below 11.6 µL/min/mg. For the same compound, the Parasitaemia decreased in the data set with P. berghei was 99.6%. Besides, in the data set with HepG2 cells, the “Selectivity Index (SI) = EC50” value worked out at 552.6. For the same compound, in the data set with HepG2 cells (read-out: Cytotoxicity EC50, HepG2, HepG2, LDH leakage, mean ± SEM, n ≥ 2), the EC50 is 21.2 ± 4 µM.
As for `COc1cc(CO)c(-c2ccc3c(c2O)[C@@H](C)N[C@H](C)C3)c2cccc(O)c12` [Dioncopeltine A (5), dioncopeltine A], the IC50 in data set [1] (setting [6]) is 0.304 ± 0.06 µM. For the same compound, in data set [1], the “Resistance Index (RI) = IC50” value came to 38.1. In addition, the fraction remaining at 0.5 h, 1 μM is 98% in data set [3] (both, human, liver microsomes, % Remaining after 30 min, Human, 1 μM, human liver microsomes 0.4 mg/ml, 30 min, 37 °C); below 7% in data set [4] (male, CD1, mouse, liver microsomes, % Remaining after 30 min, Mouse, 1 μM, mouse liver microsomes 0.4 mg/ml, 30 min, 37 °C); above 99% in data set [5] (male, IGS, rat, liver microsomes, % Remaining after 30 min, Rat, 1 μM, rat liver microsomes 0.4 mg/ml, 30 min, 37 °C). Moreover, in “Lactate dehydrogenase”, the concentration giving a half-maximal response (EC50) amounted to 39 ± 13.1 µM. For the same compound, in the data set with HepG2 cells, the “Selectivity Index (SI) = EC50” value came out at 4890.8.
